{
  "source": "patent US6344440B1",
  "about": "“Antisecretory factor peptides regulating pathological permeability changes” (Rural Patent Svenska AB, priority 1995, dated 2002)",
  "molecules": {"B1": {"name": "rAF: recombinant human antisecretory factor, SEQ ID No. 2, thrombin-cleaved pure AF-1 protein expressed in E. coli (protein)", "chain": "MVLESTMVCVDNSEYMRNGDFLPTRLQAQQDAVNIVCHSKTRSNPENNVGLITLANDCEVLTTLTPDTGRILSKLHTVQPKGKITFCTGIRVAHLALKHRQGKNHKMRIIAFVGSPVEDNEKDLVKLAKRLKKEKVNVDIINFGEEEVNTEKLTAFVNTLNGKDGTGSHLVTVPPGPSLADALISSPILAGEGGAMLGLGASDFEFGVDPSADPELALALRVSMEEQRHAGGGARRAARASAAEAGIATTGTEDSDDALLKMTISQQEFGRTGLPDLSSMTEEEQIAYAMQMSLQGAEFGQAESADIDASSAMDTSEPAKEEDDYDVMQDPEFLQSVLENLPGVDPNNEAIRNAMGSLPPRPPRTARRTRRRKTRSETGGKG", "modifications": "Human"}, "B2": {"name": "N1: recombinant peptide, amino acids 1-80 of SEQ ID NO:2, expressed from basepairs 63-301 (protein)", "chain": "MVLESTMVCVDNSEYMRNGDFLPTRLQAQQDAVNIVCHSKTRSNPENNVGLITLANDCEVLTTLTPDTGRILSKLHTVQP", "modifications": "Human"}},
  "key": {"[1]": {"system": "CT-induced extravascular penetration of Evans blue in the plexus choroideus", "details": "rat, in vivo, iv"}, "[2]": {"system": "toxin A from Clostridium difficile-induced inflammation and fluid secretion in the intestinal mucosa", "experiment": "Toxin A-induced intestinal inflammation and fluid secretion, rat intestinal loop model", "type": "in vivo", "details": "for toxin A-induced fluid secretion: p<0.01", "method": "The effect of rAF on inflammation in the intestinal mucosa was also tested in the rat intestinal loop model. […] Half of the rats in each group received 100 ng of rAF intravenously 30 sec prior to the challenge; the other half received PBS buffer as control. After killing the rat, the loops was dissected out, and the middle 2-3 cm part of the loops were frozen on dry ice. The frozen specimens were then sectioned in 8 μm thick sections by use of a Leica cryostat. […] Alkaline phosphatases are expressed by the intestinal epithelial cells and the staining allows an assessment and of the integrity of the intestinal epithelium."}, "[3]": {"system": "CT-induced extravascular penetration of Evans blue in the small intestine", "details": "rat, in vivo, iv"}, "[4]": {"system": "cholera toxin-induced fluid secretion in rat intestine", "details": "in vivo"}, "[5]": {"system": "cholera toxin-induced Evans blue permeation of intestinal tissue", "details": "rat, in vivo"}, "[6]": {"experiment": "Toxicity of rAF in rats", "type": "in vivo, rat", "method": "Toxicity—In order to test the toxicity of rAF it was injected in a high dose, 50 μg per rat."}},
  "data": [
    {"molecule": "IVCHSKTR (Human) [P1]", "values": [
      {"measurement": "CT-induced extravascular penetration of Evans blue, plexus choroideus", "setting": "[1]", "value": "inhibits the CT-induced extravascular penetration of Evans blue"},
      {"measurement": "effect on toxin A-induced intestinal inflammation and fluid secretion", "setting": "[2]; 0.5 μg replacing the rAF protein", "value": "achieved the same effect"},
      {"measurement": "state of intestinal mucosa (alkaline phosphatase staining, FIG. 9)", "setting": "[2]; 0.5 μl of P1 prior to toxin challenge", "value": "a conserved and normal intestinal mucosa"},
      {"measurement": "CT-induced extravascular penetration of Evans blue, small intestine", "setting": "[3]", "value": "inhibits the CT-induced extravascular penetration of Evans blue"},
      {"measurement": "ED50 (amount causing halfmaximal inhibition)", "setting": "[4]", "value": 5, "unit": "pmol"},
      {"measurement": "active dose", "setting": "[4]", "value": "less than 1 ng"},
      {"measurement": "activity (inhibition of cholera secretion)", "setting": "[4]", "value": "active"}
    ]},
    {"molecule": "P3: peptide of amino acids 35-46 of SEQ ID NO:2, solid phase synthesis (IVCHSKTRSNPE; Human)", "values": [
      {"measurement": "ED50 (amount causing halfmaximal inhibition)", "setting": "[4]", "value": 7, "unit": "pmol"},
      {"measurement": "activity (inhibition of cholera secretion)", "setting": "[4]", "value": "active"}
    ]},
    {"molecule": "N2: recombinant peptide, amino acids 36-80 of SEQ ID NO:2, expressed from basepairs 168-301 (VCHSKTRSNPENNVGLITLANDCEVLTTLTPDTGRILSKLHTVQP; Human)", "values": [
      {"measurement": "ED50 (amount causing halfmaximal inhibition)", "setting": "[4]", "value": 6, "unit": "pmol"}
    ]},
    {"molecule": "N3: recombinant peptide, amino acids 36-51 of SEQ ID NO:2, expressed from basepairs 168-215 (VCHSKTRSNPENNVGL; Human)", "values": [
      {"measurement": "ED50 (amount causing halfmaximal inhibition)", "setting": "[4]", "value": 3, "unit": "pmol"}
    ]},
    {"molecule": "VCHSKT (Human) [P2]", "values": [
      {"measurement": "effect on the toxin response", "setting": "[4]", "value": "no effect"}
    ]},
    {"molecule": "B1", "values": [
      {"measurement": "% increase of EB-konc", "setting": "[5]", "value": 0, "unit": "NS %"},
      {"measurement": "CT-induced increase of EB extracted from the intestinal tissue", "setting": "[5]", "value": "prevent this increase"},
      {"measurement": "EB/g int. tissue × 10^−07", "setting": "[5]", "value": "29.6 ± 1.5", "unit": "EB/g int. tissue × 10^−07"},
      {"measurement": "toxic reaction", "setting": "[6]; 50 μg per rat, observation period of one week", "value": "No obvious toxic reaction"},
      {"measurement": "toxic reactions", "setting": "[6]; rats given 100 fold higher doses than that causing half-maximal inhibition", "value": "no obvious toxic reactions"},
      {"measurement": "damage of the intestinal mucosa (shedding, necrosis, bleeding)", "setting": "[2]; 100 ng i.v. 30 sec prior to 0.5 μg toxin A, 2.5 and 5 h", "value": "no shedding, necrosis or bleeding"},
      {"measurement": "toxin A-induced fluid secretion", "setting": "[2]; 100 ng i.v. 30 sec prior to 0.5 μg toxin A, after 2.5 h, control 199±4", "value": "137 ± 5", "unit": "mg/cm"},
      {"measurement": "toxin A-induced fluid secretion", "setting": "[2]; 100 ng i.v. 30 sec prior to 0.5 μg toxin A, after 6 h, control 421±3", "value": "203 ± 6", "unit": "mg/cm"},
      {"measurement": "inhibition of intestinal secretion compared to control animals", "setting": "[4]", "value": "significant inhibition"},
      {"measurement": "reduction of the fluid secretion compared to controls", "setting": "[4]", "value": "significant reduction"}
    ]},
    {"molecule": "B2", "values": [
      {"measurement": "ED50 (amount causing halfmaximal inhibition)", "setting": "[4]", "value": 4, "unit": "pmol"}
    ]}
  ]
}
